The values below come from patent publication US20200246438A1, “TARGETING GDF6 AND BMP SIGNALING FOR ANTI-MELANOMA THERAPY” (UNIVERSITY OF MASSACHUSETTS, priority 2015, published 2020).

Entries after “also recorded” stand apart in the source; their conditions may differ.

Experiment [1] concerns BMP signaling (phospho-SMAD1). As to the kind of experiment: Western blot of BMP signaling (phospho-SMAD1) in DMH1-treated A375 cells. In kind it is cell-based, human. The note with it: 10 μM DMH1, Western blot. The procedure: Protein extracts were prepared as previously described (S. D. Epstein LB, Hunte-McDonough B, harris C A, Cytokines: A pratical approach (Balkwill F R., ed). 81-93 (1991)). Extracts were separated on 12% SDS-PAGE gels. Blots were probed with primary antibodies (GDF6 (Sigma PRS4691; 1:1000), phospho-SMAD1/5/8 (Cell Signaling 13820; 1:1000), SMAD1 (Cell Signaling 9743; 1:500), Total SMAD1/5/8 (Santa Cruz sc-6031-R; 1:1000), FLAG (Sigma F3165, 1:2000), GAPDH (Abcam 8245; 1:2000)) overnight at 4° C., washed five times in TBS plus 0.1% Tween (TBST) and then incubated with the appropriate HRP-conjugated secondary antibody (Jackson Labs) for 1 hour at room temperature. Membranes were washed five times in TBST and visualized on autoradiography film after incubating with ECL reagent (Supersignal West Pico or Supersignal West Femto; Thermo Scientific).

Experiment [2] deals with A375 melanoma cells. As to the kind of experiment: growth curves by direct cell counting, A375. In kind it is cell-based, human. The following applies: 10 μM DMH1 vs control media. The procedure: (§1) For growth curves 50,000 live cells were seeded per well in a 6-well tissue culture plate on day 0. The numbers of live cells were calculated every day using an automated cell counter (Nexcelom Bioscience Cellometer Auto T4) following standard procedures. All assays were performed with technical replicates. For clonogenic assays, 3,000 live cells were seeded in a 10 cm tissue culture plate. After 3 weeks, colonies were fixed and stained using bromophenol blue in acetone. ImageJ was used to quantify the number of colonies. In assays with DMH1 treatment, control or DMH1-containing media was replaced every other day. For soft agar assays a 0.5% bottom layer (1:1 with 1% agar and 2×DMEM with 20% FBS) and a 0.3% top layer (1:1 with 0.6% agar and 2×DMEM with 20% FBS) were used. 3,000 live cells per well of a 6-well tissue culture plate were added in the top layer. Media was added initially then replaced every 3 days. After 3 weeks, colonies were stained with nitroblue tetrazolium chloride overnight at 37° C. Once stained, individual wells were photographed, and ImageJ was used to count the number of colonies. All these assays were done in triplicate, and experiments were repeated at least twice. A representative image of each has been shown.

The next experiment has as its system SKMEL28 melanoma cells. Briefly: growth curves by direct cell counting, SKMEL28. The format is cell-based, human. The following applies: SKMEL28 cells treated with DMH1 vs control. The procedure: as §1
Experiment [3] relates to A375 melanoma cells. As to the kind of experiment: clonogenic growth / colony formation assay. The following applies: A375-EMPTY vs A375-SMAD1DVD cells treated with DMH1. In kind it is cell-based, human. As to the method: as §1
Experiment [4] has as its system A375 melanoma cells. Briefly: A375 mouse xenografts treated with DMH1, tumor volume. The format is in vivo. The note with it: 25 mg/kg DMH1 intraperitoneally every other day vs vehicle. From the text: All animal protocols were approved by the UMMS Institution Animal Care and Use Committee (A-2016, A-2171). Mice were randomly allocated to individual experimental groups. No blinding was done as animal groups were identified by tagging and cage labeling. Animals were excluded, according to pre-established criteria, if the tumor volume reached>1,000 mm^3; if tumor size or location affected the mobility or general health of animal, the animal was euthanized and excluded from the experiment or the complete experiment was terminated. A375 cells stably expressing an EGFP or GDF6 or SMAD1 shRNA and/or empty vector or GDF6-expressing vector or SMAD1DVD-overexpressing vector were subcutaneously injected into the flanks of 6-8-week-old BALB/c nu/nu female mice (Taconic Farms) to produce orthotopic primary tumor. Primary tumor growth was monitored every 3 days with calipers, and the tumor volume was calculated as described previously (C. Gazin, N. Wajapeyee, S. Gobeil, C. M. Virbasius, M. R. Green, An elaborate pathway required for Ras-mediated epigenetic silencing. Nature 449, 1073-1077 (2007)). For GDF6 knockdown, SMAD1 knockdown and epistasis experiments, […] live cells were injected. For GDF6 overexpression experiments, 1×10^6 live cells were injected. […] The growth of the tumor was monitored as described above. […]

The test system of the next experiment is MeWo melanoma cells. As to the kind of experiment: proliferation of GDF6-knockdown cells supplemented with recombinant GDF6 protein. The format is cell-based, human. The following applies: MeWo cells treated with shRNAs targeting GDF6, recombinant GDF6 protein added to culture media.

`CC(C)Oc1ccc(-c2cnc3c(-c4ccnc5ccccc45)cnn3c2)cc1` [DMH1]: the “level of phospho-SMAD1 relative to total SMAD protein” value in experiment [1] was “reduced level of phospho-SMAD1”. The “cell growth (growth curves)” value with A375 melanoma cells [2] was “grew more slowly; also recorded: inhibits A375 melanoma cell growth”; in the experiment on SKMEL28 melanoma cells, “grew more slowly”. For the same molecule, the “growth defects caused by DMH1 in SMAD1DVD-expressing cells (colony formation)” value in the experiment on A375 melanoma cells [3] was “reversed by SMAD1DVD”. The “tumor volume / tumor growth” value in the experiment with A375 melanoma cells [4] is “smaller tumors arose and grew more slowly; also recorded: decreased tumorigenicity; also recorded: abrogates melanoma growth”.

B1: recombinant GDF6 protein: recombinant GDF6 protein added to culture media; soluble, extracellular BMP ligand (BMP13) (protein, UniProt Q6KF10 336-455, looked up)
Growth/differentiation factor …: TAFASRHGKRHGKKSRLRCSKKPLHVNFKELGWDDWIIAPLEYEAYHCEGVCDFPLRSHLEPTNHAIIQTLMNSMDPGSTPPSCCVPTKLTPISILYIDAGNNVVYKQYEDMVVESCGCR
On to B1, for which the “proliferation of GDF6-knockdown cells” value was “restored” in the experiment with MeWo melanoma cells and “able to sustain their proliferation” with MeWo melanoma cells (listed as recombinant GDF6).
